Data set [1] has as its system SARS-CoV-2 PsV. The data set is described as follows: microbe, parasite or virus in culture. The data set is classed as cell-based. The settings on record: Severe acute respiratory syndrome coronavirus 2.
Data set [2] concerns pseudotyped SARS-CoV-2 Alpha (B.1.1.7). The data set is described as follows: microbe, parasite or virus in culture. As to conditions: Severe acute respiratory syndrome coronavirus 2, Caco-2. It counts as cell-based.
Data set [3] concerns pseudotyped SARS-CoV-2 Beta (B.1.351). As to the kind of experiment: microbe, parasite or virus in culture. It counts as cell-based. The settings on record: Severe acute respiratory syndrome coronavirus 2, Caco-2.
In data set [4] the test system is pseudotyped SARS-CoV-2 Gamma (P.1). As to the kind of experiment: microbe, parasite or virus in culture. The settings on record: Severe acute respiratory syndrome coronavirus 2, Caco-2. It counts as cell-based.
Data set [5] relates to pseudotyped SARS-CoV-2 Omicron (B.1.1.529). As to the kind of experiment: microbe, parasite or virus in culture. It counts as cell-based. The settings on record: Severe acute respiratory syndrome coronavirus 2, Caco-2.
The test system of data set [6] is authentic SARS-CoV-2 WT (nCoV-SH01). The data set is described as follows: microbe, parasite or virus in culture. It counts as cell-based. The settings on record: Severe acute respiratory syndrome coronavirus 2, Vero C1008.
Data set [7] has as its system cell-free SARS-CoV-2 PsV. The data set is described as follows: Inactivation of cell-free SARS-CoV-2 PsV. As to conditions: Severe acute respiratory syndrome coronavirus 2. It counts as cell-based.
For data set [8], the system named is H5N1 PsV. The data set is described as follows: microbe, parasite or virus in culture. As to conditions: Influenza A virus, H5N1, MDCK, read-out: IC50 H5N1. It counts as cell-based, influenza virus.
Data set [9] deals with H7N9 PsV. As to the kind of experiment: microbe, parasite or virus in culture. As to conditions: Influenza A virus, H7N9, MDCK, read-out: IC50 H7N9. The data set is classed as cell-based, influenza virus.
Data set [10] deals with SARS-CoV-2 PsV. The data set is classed as cell-based.
Data set [11] deals with SARS-CoV PsV.
Data set [12] deals with cell-free SARS-CoV PsV.
Data set [13] deals with MERS-CoV PsV.
A short description of data set [14]: in vitro. As to conditions: dog.
A short description of data set [15]: Cytotoxicity (CCK-8) on Huh-7 cells. The settings on record: human.
For data set [16], the system named is SARS-CoV PsV. The data set is described as follows: microbe, parasite or virus in culture. As to conditions: Severe acute respiratory syndrome coronavirus.
Data set [17] has as its system cell-free SARS-CoV PsV. As to the kind of experiment: microbe, parasite or virus in culture. The settings on record: Severe acute respiratory syndrome coronavirus.
Data set [18] relates to MERS-CoV PsV. The data set is described as follows: microbe, parasite or virus in culture. As to conditions: Middle East respiratory syndrome-related coronavirus, Huh-7.
The test system of data set [19] is cell-free MERS-CoV PsV. The data set is described as follows: microbe, parasite or virus in culture. As to conditions: Middle East respiratory syndrome-related coronavirus, Huh-7.
Data set [20] can be described thus: Cytotoxicity (CCK-8) on hACE2-293T cells. As to conditions: human.
The test system of data set [21] is cell-free MERS-CoV PsV.

The source of these data is article PMC8954792 (Viruses, 2022).

What is called IC50 is the midpoint of a concentration-inhibition curve. One may read the EC50 as the concentration giving half of the maximal effect.

Consider `O=C(O)c1cc(-c2ccc(/C=C3\SC(=S)N(CCc4ccc(OCc5ccsc5)cc4)C3=O)o2)ccc1Cl` [FD013], for which the IC50 stood at 120 nM in data set [1]; 400 nM in data set [2]; 310 nM in data set [3]; 410 nM in [4]; 980 nM in data set [5]; 30 nM in data set [6]. Besides, the IC50 came out at 260 ± 20 nM in data set [8], 3540 ± 890 nM in [9], 50 ± 10 nM in data set [16] and 50 ± 10 nM in data set [18]. The EC50 in [7] was determined as 70 nM; in data set [17] it was 100 ± 10 nM; in data set [19], 30 ± 10 nM. In addition, the “inhibition of SARS-CoV-2 PsV infection after unbound compound washed from cells” value in [10] is “not effective in inhibiting viral infection after washing”. Further, the “SI CC50/IC50” value is given as 372.40 in data set [11] and 618.00 in data set [13]. Further, in [12], the “SI CC50/EC50” value amounted to 186.20. In [14], the CC50 is > 50000 nM. In addition, the CC50 at 48 h stood at 30900 ± 630 nM in data set [15] and 18600 ± 230 nM in [20].

As to `CCOc1ccc(CCN2C(=O)/C(=C/c3ccc(-c4ccc(Cl)c(C(=O)O)c4)o3)SC2=S)cc1` [FD009], the IC50 in [1] was found to be 50 nM; in data set [2] it was 550 nM; in [3] it was 240 nM; in data set [4] it was 470 nM; in data set [5] it was 580 nM; in data set [6], 30 nM. Moreover, the IC50 in data set [8] was 150 ± 40 nM; in [9], 1410 ± 270 nM; in data set [16] it was 30 ± 10 nM; in [18] it was 280 ± 20 nM. The EC50 in [7] was 160 nM; in data set [17] it was 120 ± 10 nM; in data set [19], 290 ± 20 nM. In addition, the “inhibition of SARS-CoV-2 PsV infection after unbound compound washed from cells” value in data set [10] is “not effective in inhibiting viral infection after washing”. Moreover, the “SI CC50/EC50” value in data set [12] is 144.75; in data set [21], 94.97. Further, the “SI CC50/IC50” value in data set [13] turned out to be 98.36. Further, the CC50 in [14] is > 50000 nM. Further, the CC50 at 48 h in data set [15] came to 27500 ± 1430 nM; in [20], 17400 ± 640 nM.

Consider `CCC(CC)COC(=O)[C@H](C)N[P@](=O)(OC[C@H]1O[C@@](C#N)(c2ccc3c(N)ncnn23)[C@H](O)[C@@H]1O)Oc1ccccc1` [Remdesivir, remdesivir, reference compound], for which inhibition in data set [6] was half-maximal at 1090 nM (IC50).

In the case of `C#CCOc1ccc(CCN2C(=O)/C(=C/c3ccc(-c4ccc(Cl)c(C(=O)O)c4)o3)SC2=S)cc1` [FD007], the IC50 was 320 nM in [1]; 290 nM in data set [2]; 810 nM in data set [3]; 530 nM in [4]; 3090 nM in data set [5]; 170 nM in data set [6]. The IC50 in data set [8] was 470 ± 110 nM; in data set [9], 2130 ± 200 nM; in [16], 110 ± 10 nM; in data set [18], 200 ± 30 nM. In addition, the EC50 in data set [7] came to 960 nM; in data set [17], 1540 ± 140 nM; in [19], 890 ± 90 nM. In addition, the “SI CC50/IC50” value is recorded as 301.00 in [11] and >250 in data set [13]. In addition, the results for the “SI CC50/EC50” value in [12] and in data set [21] were 21.50 and >56.18, respectively. For the same compound, in data set [14], the CC50 is > 50000 nM. The CC50 at 48 h in [15] was > 50000 nM; in data set [20], 33100 ± 1020 nM.

In the case of `C#CCOCCOc1ccc(CCN2C(=O)/C(=C/c3ccc(-c4ccc(Cl)c(C(=O)O)c4)o3)SC2=S)cc1` [FD008], the IC50 in data set [1] was found to be 460 nM; in [2], 340 nM; in data set [3] it was 420 nM; in data set [4], 690 nM; in data set [5], 740 nM; in data set [6], 50 nM. The IC50 amounted to 510 ± 140 nM in data set [8], 2510 ± 330 nM in [9], 50 ± 10 nM in data set [16] and 310 ± 20 nM in [18]. The EC50 in data set [7] worked out at 410 nM; in [17] it was 190 ± 20 nM; in [19], 690 ± 130 nM. Besides, the “SI CC50/IC50” value in [11] came out at 468.80; in [13], 125.48. The “SI CC50/EC50” value in data set [12] was 123.37; in [21], 56.38. Besides, in [14], the CC50 is > 50000 nM. Also, the CC50 at 48 h in data set [15] came to 38900 ± 1220 nM; in data set [20] it was 23400 ± 780 nM.

As to `O=C(O)c1cc(-c2ccc(/C=C3\SC(=S)N(CCc4ccc(OCc5ccc(F)cc5)cc4)C3=O)o2)ccc1Cl` [FD010], the IC50 was found to be 360 nM in [1]; 1040 nM in data set [2]; 1550 nM in data set [3]; 870 nM in [4]; 2880 nM in data set [5]; 40 nM in data set [6]. The IC50 was determined as 970 ± 210 nM in [8], 5880 ± 610 nM in [9], 290 ± 30 nM in [16] and 120 ± 10 nM in data set [18]. In addition, the EC50 in data set [7] is 90 nM; in data set [17], 190 ± 30 nM; in data set [19] it was 40 ± 10 nM. For the same compound, the “SI CC50/IC50” value in data set [11] is listed as 70.41; in data set [13] it was 372.25. Moreover, the “SI CC50/EC50” value in [12] is on record as 107.47. Also, in data set [14], the CC50 was > 50000 nM. The figures for the CC50 at 48 h in data set [15] and in [20] were 44700 ± 1260 nM and 20400 ± 1000 nM, respectively.
